The values that follow are results of earlier work, collected in article PMC5510229, “BCAT1 controls metabolic reprogramming in activated human macrophages and is associated with inflammatory diseases” (Nature Communications, 2017).

In series [1] the test system is a2δ−1 and a2δ−2 subunits of voltage-activated calcium channels. The arrangement: method as in PMID 19128880. Particulars: cited from earlier work.
Details of series [2]: method as in PMID 10381778. The following applies: cited from earlier work.

With `NCC1(CC(=O)O)CCCCC1` [gabapentin], the binding affinity result in series [1] was “high affinity”. In addition, the anti-inflammatory effects result in series [2] is “no apparent anti-inflammatory effects”.
